From patent US9029409B2, “Isoxazolines as therapeutic agents” (AbbVie Inc., priority 2011, dated 2015)

target: T1, recombinant human MMP13 catalytic domain (CD) (Homo sapiens, UniProt P45452); assay: MMP-13 catalytic domain FRET enzyme assay; format: biochemical; conditions: recombinant human MMP-13 catalytic domain
T1 construct: catalytic domain (CD) construct encompassing residues 20-274 (SWISS-PROT P45452); made in house
Method: A recombinant human MMP13 catalytic domain (CD) construct encompassing residues 20-274 (SWISS-PROT P45452) was generated by synthetic gene methods and bacterial expression. MMP-13 activity assays were performed using the recombinant human MMP-13 CD at a 0.4 nM concentration and the fluorogenic substrate (QXL-520)-K-P-L-A˜Nva-Dap(5-FAM)-A-R-NH2 (Anaspec cat #60554-01, San Jose, Calif.) at a 0.25 μM concentration in assay buffer containing […], pH 7.5, 10 mM CaCl2, 150 mM NaCl, 0.05% Brij 35. The assay is based on the cleavage of this substrate by MMP-13, resulting in decrease of FRET between the donor-acceptor pair and subsequent fluorescence enhancement. The assays were carried out in 384-well plates (Greiner cat #781076, Germany) for 60 min at RT. After the incubation period, the reaction was quenched by the addition of 5 μL of 500 mM EDTA (100 mM final concentration) (Rankem, Cat #E0120, India) mixed well and the rate of substrate hydrolysis was determined by monitoring change in fluorescence at excitation and emission wavelengths of 485 nm and 535 nm respectively. Fluorescence was measured on a Victor V5 plate reader (Perkin Elmer, Turku, Finland). The test compounds used for assessing the potency of inhibition of MMP-13 activity were dissolved in DMSO (final DMSO concentration in the assay was 5%). Selected compounds were also screened against full length MMP13 (R&D Systems (Cat. No. 511-MM-010), Minneapolis, Minn.) at 2 nM concentration using the same fluorogenic substrate mentioned above. The enzyme was activated using 1 m Mp-aminophenylmercuric acetate—APMA (Cat #A-9563, Sigma, Germany).
Data analysis: The percent inhibition of the enzyme activity in presence of test compounds were calculated using the equation, percent (%) Inhibition=100−[(Fi/Fc)*100] where Fc is the fluorescence corresponding to initial enzyme activity and Fi is the fluorescence corresponding to the enzyme activity in presence of inhibitor. The IC50 values were calculated by fitting the dose-response data to a sigmoidal curve fitting equation using Graph Pad prism software (Version 5, La Jolla, Calif.).
MMP13 Catalytic Domain (CD) Potency of the Described Examples Determined Using Time Resolved Fluorescence Resonance Energy Transfer (FRET) Enzyme Assays: […]

SMILES | IC50
COc1ccc(CNC(=O)c2cc(C3=NOC(C)(c4ccc(OCCO)cc4)C3)nc(C)n2)cc1 (stereo not shown) | 100 to 1000 nM
COc1cc(CNC(=O)c2cc(C3=NOC(C4CCCCC4)C3)nc(C)n2)ccc1F (stereo not shown) | < 10 nM
COc1ccc(CNC(=O)c2cc(C3=NOC(C4CCN(C(C)=O)CC4)C3)nc(C)n2)cc1 (stereo not shown) | 100 to 1000 nM
COc1cc(CNC(=O)c2cc(C3=NOC([C@H]4CC[C@H](CNC(=O)CO)CC4)C3)nc(C)n2)ccc1F (stereo partly shown) | < 10 nM
COc1cc(CNC(=O)c2cc(C3=NOC(c4cc(-c5nc(C)no5)nn4C)C3)nc(C)n2)ccc1F (stereo not shown) | 10 to 100 nM
COc1cc(CNC(=O)c2cc(C3=NOC(c4cc(C(N)=O)nn4C)C3)nc(C)n2)ccc1F (stereo not shown) | 100 to 1000 nM
COc1cc(CNC(=O)c2cc(C3=NOC([C@H]4CC[C@H](CNC(=O)CC#N)CC4)C3)nc(C)n2)ccc1F (stereo partly shown) | < 10 nM
COc1cc(CNC(=O)c2cc(C3=NOC(c4ccc(-c5nc(C)no5)nn4)C3)nc(C)n2)ccc1F (stereo not shown) | < 10 nM
COc1cc(CNC(=O)c2cc(C3=NO[C@H]([C@H]4CO[C@H](CNC(=O)CO)CO4)C3)nc(C)n2)ccc1F | < 10 nM
COc1cc(CNC(=O)c2cc(C3=NOC(c4ccc(-c5cnco5)nc4)C3)nc(C)n2)ccc1F (stereo not shown) | < 10 nM
COc1cc(CNC(=O)c2cc(C3=NOC(c4ccc(C#N)nc4)C3)nc(C)n2)ccc1F (stereo not shown) | < 10 nM
COc1cc(CNC(=O)c2cc(C3=NOC(C4CCN(C(=O)CCN(C)C)CC4)C3)nc(C)n2)ccc1F (stereo not shown) | 10 to 100 nM
Cc1nc(C(=O)NCc2ccc(F)c(C)c2)cc(C2=NO[C@H]([C@H]3CO[C@H](CO)CO3)C2)n1 | 100 to 1000 nM
COc1cc(CNC(=O)c2cc(C3=NO[C@H]([C@@H]4CO[C@@H](C(=O)O)CO4)C3)nc(C)n2)ccc1F | 10 to 100 nM
COc1cc(CNC(=O)c2cc(C3=NOC([C@H]4CC[C@H](NC(=O)N(C)C)CC4)C3)nc(C)n2)ccc1F (stereo partly shown) | < 10 nM
Cc1nc(C(=O)NCc2ccc(Cl)c(Cl)c2)cc(C2=NO[C@H]([C@H]3CO[C@H](CO)CO3)C2)n1 | > 1000 nM

SMILES | IC50
COc1cc(CNC(=O)c2cc(C3=NOC(c4cnn(CCO)c4)C3)nc(C)n2)ccc1F (stereo not shown) | > 1000 nM
CNC(=O)NC[C@@H]1CO[C@@H]([C@@H]2CC(c3cc(C(=O)NCc4ccc(F)c(OC)c4)nc(C)n3)=NO2)CO1 | 10 to 100 nM
COc1cc(CNC(=O)c2cc(C3=NO[C@H]([C@H]4CO[C@H](CNC(=O)N(C)C)CO4)C3)nc(C)n2)ccc1F | 10 to 100 nM
COc1cc(CNC(=O)c2cc(C3=NOC(C(=O)N4CCCC4)C3)nc(C)n2)ccc1F (stereo not shown) | > 1000 nM
COc1cc(CNC(=O)c2cc(C3=NOC([C@H]4CC[C@H](NC(=O)CN(C)C)CC4)C3)nc(C)n2)ccc1F (stereo partly shown) | 10 to 100 nM
COc1cc(CNC(=O)c2cc(C3=NOC(c4cnc5[nH]ncc5c4)C3)nc(C)n2)ccc1F (stereo not shown) | 10 to 100 nM
COc1cc(CNC(=O)c2cc(C3=NOC(c4cnc5c(cnn5C)c4)C3)nc(C)n2)ccc1F (stereo not shown) | 10 to 100 nM
COc1cc(CNC(=O)c2cc(C3=NOC(C(=O)NCCO)C3)nc(C)n2)ccc1F (stereo not shown) | 100 to 1000 nM
COc1cc(CNC(=O)c2cc(C3=NOC(C(N)=O)C3)nc(C)n2)ccc1F (stereo not shown) | > 1000 nM
COc1cc(CNC(=O)c2cc(C3=NOC([C@H]4CC[C@H](C(N)=O)CC4)C3)nc(C)n2)ccc1F (stereo partly shown) | < 10 nM
COc1cc(CNC(=O)c2cc(C3=NOC([C@H]4CC[C@H](NC(=O)C(C)(C)O)CC4)C3)nc(C)n2)ccc1F (stereo partly shown) | 10 to 100 nM
COc1cc(CNC(=O)c2cc(C3=NOC([C@H]4CC[C@H](NC(=O)[C@H](C)O)CC4)C3)nc(C)n2)ccc1F (stereo partly shown) | < 10 nM
COc1cc(CNC(=O)c2cc(C3=NOC(c4ccc(N(C)C)nn4)C3)nc(C)n2)ccc1F (stereo not shown) | > 1000 nM
COc1cc(CNC(=O)c2cc(C3=NOC([C@H]4CC[C@H](C(=O)NCCO)CC4)C3)nc(C)n2)ccc1F (stereo partly shown) | < 10 nM
Cc1nc(C(=O)NCc2ccc(F)c(C)c2)cc(C2=NOC(c3ccc(C#N)nn3)C2)n1 (stereo not shown) | < 10 nM
CNCC(C)N[C@H]1CC[C@H](C2CC(c3cc(C(=O)NCc4ccc(F)c(OC)c4)nc(C)n3)=NO2)CC1 (stereo partly shown) | 10 to 100 nM

Now from value to compound:

IC50 | SMILES
< 10 nM | COc1ccc(CNC(=O)c2cc(C3=NOC(c4ccc(C(N)=O)cc4)C3)nc(C)n2)cc1 (stereo not shown)
10 to 100 nM | COc1cc(CNC(=O)c2cc(C3=NOC(c4ccccn4)C3)nc(C)n2)ccc1F (stereo not shown)
< 10 nM | COc1cc(CNC(=O)c2cc(C3=NOC(C4CCC(O)CC4)C3)nc(C)n2)ccc1F (stereo not shown)
< 10 nM | COc1cc(CNC(=O)c2cc(C3=NOC(c4ccc(-c5cnco5)cn4)C3)nc(C)n2)ccc1F (stereo not shown)
10 to 100 nM | COc1cc(CNC(=O)c2cc(C3=NOC(c4ccc(S(C)(=O)=O)nn4)C3)nc(C)n2)ccc1F (stereo not shown)
< 10 nM | COc1cc(CNC(=O)c2cc(C3=NOC(c4ccc(-c5nc(C)no5)nc4)C3)nc(C)n2)ccc1F (stereo not shown)
< 10 nM | COc1cc(CNC(=O)c2cc(C3=NOC(c4ccc(C(C)=O)nc4)C3)nc(C)n2)ccc1F (stereo not shown)
10 to 100 nM | COc1cc(CNC(=O)c2cc(C3=NOC(c4ccc(C(N)=O)nn4)C3)nc(C)n2)ccc1F (stereo not shown)
< 10 nM | COc1cc(CNC(=O)c2cc(C3=NOC(c4ccc(C#N)nn4)C3)nc(C)n2)ccc1F (stereo not shown)
10 to 100 nM | CNC(=O)c1ccc(C2CC(c3cc(C(=O)NCc4ccc(F)c(OC)c4)nc(C)n3)=NO2)nn1 (stereo not shown)
10 to 100 nM | COc1cc(CNC(=O)c2cc(C3=NOC(c4ccc(CO)nc4)C3)nc(C)n2)ccc1F (stereo not shown)
< 10 nM | COc1cc(CNC(=O)c2cc(C3=NOC([C@H]4CC[C@H](NC(=O)NCCO)CC4)C3)nc(C)n2)ccc1F (stereo partly shown)
< 10 nM | COc1cc(CNC(=O)c2cc(C3=NOC([C@H]4CC[C@H](NC(=O)N(C)CCO)CC4)C3)nc(C)n2)ccc1F (stereo partly shown)
10 to 100 nM | COc1cc(CNC(=O)c2cc(C3=NOC(c4cnc(S(C)(=O)=O)cn4)C3)nc(C)n2)ccc1F (stereo not shown)
< 10 nM | CNC(=O)N[C@H]1CC[C@H](C2CC(c3cc(C(=O)NCc4ccc(F)c(OC)c4)nc(C)n3)=NO2)CC1 (stereo partly shown)
< 10 nM | COc1cc(CNC(=O)c2cc(C3=NO[C@H]([C@H]4CO[C@H](CNC(=O)CC#N)CO4)C3)nc(C)n2)ccc1F
10 to 100 nM | COc1cc(CNC(=O)c2cc(C3=NO[C@H]([C@H]4CO[C@H](CNC(=O)C(C)(C)O)CO4)C3)nc(C)n2)ccc1F
10 to 100 nM | COc1cc(CNC(=O)c2cc(C3=NO[C@H]([C@H]4CO[C@H](C(C)(C)O)CO4)C3)nc(C)n2)ccc1F
< 10 nM | CNC(=O)[C@@H]1CO[C@@H]([C@@H]2CC(c3cc(C(=O)NCc4ccc(F)c(OC)c4)nc(C)n3)=NO2)CO1
< 10 nM | CNC(=O)[C@H]1CC[C@H](C2CC(c3cc(C(=O)NCc4ccc(F)c(OC)c4)nc(C)n3)=NO2)CC1 (stereo partly shown)
> 1000 nM | COc1cc(CNC(=O)c2cc(C3=NOC(CN4CCC(CO)C4)C3)nc(C)n2)ccc1F (stereo not shown)
> 1000 nM | COc1cc(CNC(=O)c2cc(C3=NOC(CN4CCN(C(C)=O)CC4)C3)nc(C)n2)ccc1F (stereo not shown)
> 1000 nM | COc1cc(CNC(=O)c2cc(C3=NOC(c4ccc(N5CCCC5)nn4)C3)nc(C)n2)ccc1F (stereo not shown)
10 to 100 nM | COc1cc(CNC(=O)c2cc(C3=NOC([C@H]4CC[C@H](NC(=O)NC(CO)CO)CC4)C3)nc(C)n2)ccc1F (stereo partly shown)
< 10 nM | COc1cc(CNC(=O)c2cc(C3=NOC([C@H]4CC[C@H](NC(=O)N(C)CC(O)CO)CC4)C3)nc(C)n2)ccc1F (stereo partly shown)
< 10 nM | CC(=O)N[C@H]1CC[C@H](C2CC(c3cc(C(=O)NCc4ccc(F)c(C)c4)nc(C)n3)=NO2)CC1 (stereo partly shown)
